Molecular target: T1, human PAH with the R408W mutation (Homo sapiens, UniProt P00439, R408W)
T1 construct: expressed in transfected cells
T1 sequence (P00439 1-452 R408W): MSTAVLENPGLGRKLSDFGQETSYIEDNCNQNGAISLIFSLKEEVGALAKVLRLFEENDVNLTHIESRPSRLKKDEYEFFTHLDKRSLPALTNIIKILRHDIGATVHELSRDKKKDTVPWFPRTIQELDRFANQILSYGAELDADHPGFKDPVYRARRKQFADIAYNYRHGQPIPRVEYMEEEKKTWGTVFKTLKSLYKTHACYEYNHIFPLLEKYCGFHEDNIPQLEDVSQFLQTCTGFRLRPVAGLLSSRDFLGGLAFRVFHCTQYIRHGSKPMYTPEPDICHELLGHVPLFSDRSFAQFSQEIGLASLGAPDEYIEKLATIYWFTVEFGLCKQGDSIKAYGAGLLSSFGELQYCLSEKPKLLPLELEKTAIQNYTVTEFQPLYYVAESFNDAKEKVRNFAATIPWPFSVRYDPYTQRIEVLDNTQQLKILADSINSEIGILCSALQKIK
Test: Cell Based Phenylalanine Flux Assay
Set-up: scale not given here
Conditions: A375 cells expressing human R408W PAH; 24 hrs with compound; 13C-Tyrosine by LC-MS; average where tested multiple times

Row | AC50 | Structure (SMILES)
1 | E, E | O=C(c1c(C(F)(F)F)nn2ccccc12)N1CCc2[nH]cnc2C1c1nc2ccccc2s1 (stereo not drawn)
2 | E, E | NC(=O)c1nc(-c2ccccn2)oc1C(=O)N1CCc2[nH]cnc2C1c1nc2ccccc2s1 (stereo not drawn)
3 | E, E | O=C(CCC1CC1)N1CCc2[nH]cnc2C1c1nc2ccccc2[nH]1 (stereo not drawn)
4 | E, E | Cn1cc(C(C)(C)C(=O)N2CCc3[nH]cnc3C2c2nc3ccccc3s2)cn1 (stereo not drawn)
5 | E, E | NC(=O)Cn1cc(C(=O)N2CCc3[nH]cnc3C2c2nc3c(F)cccc3s2)c(Cl)n1 (stereo not drawn)
6 | E, E | Fc1ccc2nc(N3CCc4[nH]cnc4C3c3nc4ccccc4s3)oc2c1 (stereo not drawn)
7 | E, E | COCCc1ccc2c(C(=O)N3CCc4[nH]cnc4C3c3nc4ccccc4s3)c(C(F)F)nn2c1 (stereo not drawn)
8 | E, E | O=C(c1c(C(F)(F)F)nn2c1CCCC2)N1CCc2[nH]cnc2C1c1nc2ccccc2s1 (stereo not drawn)
9 | E, E | Cc1nc(C(F)(F)F)c(C(=O)N2CCc3nc[nH]c3C2c2nc3ccccc3s2)o1 (stereo not drawn)
10 | E, E | COCCc1ccc2c(C(=O)N3CCc4[nH]cnc4C3c3nc4ccccc4s3)c(C(F)(F)F)nn2c1 (stereo not drawn)
11 | E, E | NC(=O)N1CC(C(=O)N2CCc3[nH]cnc3C2c2nc3ccccc3s2)C1 (stereo not drawn)
12 | E, E | CN(C)CCc1nc(C#N)c(C(=O)N2CCc3[nH]cnc3C2c2nc3ccccc3s2)o1 (stereo not drawn)
13 | E, E | CN1CCN(c2nc(C#N)c(C(=O)N3CCc4[nH]cnc4C3c3nc4ccccc4s3)o2)CC1 (stereo not drawn)
14 | E, E | O=C(c1nnc(CCCNC2CC2)o1)N1CCc2[nH]cnc2C1c1nc2ccccc2s1 (stereo not drawn)
15 | E, E | O=C(c1ocnc1C(F)F)N1CCc2[nH]cnc2C1c1nc2ccccc2[nH]1 (stereo not drawn)
16 | E, E | CC(C)(O)c1nc(C(F)F)c(C(=O)N2CCc3[nH]cnc3C2c2nc3ccccc3[nH]2)o1 (stereo not drawn)
17 | E, E | O=C(c1oc(-c2ccccn2)nc1C(F)(F)F)N1CCc2[nH]cnc2C1c1nc2ccccc2s1 (stereo not drawn)
18 | E, E | CC(C)(O)CCc1nc(C(F)(F)F)c(C(=O)N2CCc3[nH]cnc3C2c2nc3ccccc3s2)o1 (stereo not drawn)
19 | E, E | O=C(c1c(C(F)F)nn2cc(Br)ccc12)N1CCc2[nH]cnc2C1c1nc2ccccc2s1 (stereo not drawn)
20 | E, E | CN(C)Cc1nc(C(F)(F)F)c(C(=O)N2CCc3[nH]cnc3C2c2nc3ccccc3s2)o1 (stereo not drawn)
21 | E, E | Cn1cc(-c2nc(C(F)(F)F)c(C(=O)N3CCc4[nH]cnc4C3c3nc4ccccc4s3)o2)cn1 (stereo not drawn)
22 | E, E | COCc1ccc2c(C(=O)N3CCc4[nH]cnc4C3c3nc4ccccc4s3)c(C(F)F)nn2c1 (stereo not drawn)

Same assay, conditions: A375 cells expressing human R408W PAH; 24 hrs with compound; 13C-Tyrosine by LC-MS; average where tested multiple times; read-out: AC50

Row | AC50 | Structure (SMILES)
23 | > 5 µM | O=C(CCc1ccc(F)cc1)N1CCc2[nH]cnc2C1c1nc2ccccc2[nH]1 (stereo not drawn) [listing 1 of 2 here]
24 | > 5 µM | O=C(CCc1cccs1)N1CCc2[nH]cnc2C1c1nc2ccccc2[nH]1 (stereo not drawn) [listing 1 of 2 here]
25 | > 5 µM | O=C(Cc1noc2ccccc12)N1CCc2[nH]cnc2C1c1nc2ccccc2[nH]1 (stereo not drawn) [listing 1 of 2 here]
26 | > 5 µM | O=C(CCc1nc2ccccc2o1)N1CCc2[nH]cnc2C1c1nc2ccccc2[nH]1 (stereo not drawn) [listing 1 of 2 here]
27 | > 5 µM | Cc1nnc(CCC(=O)N2CCc3[nH]cnc3C2c2nc3ccc(Br)cc3[nH]2)s1 (stereo not drawn) [listing 1 of 2 here]
28 | > 5 µM | O=C(Cc1nc(C(F)(F)F)cs1)N1CCc2[nH]cnc2C1c1nc2ccc(Br)cc2[nH]1 (stereo not drawn) [listing 1 of 2 here]
29 | > 5 µM | O=C(Cc1nccs1)N1CCc2[nH]cnc2C1c1nc2ccc(Cl)cc2[nH]1 (stereo not drawn) [listing 1 of 2 here]
30 | > 5 µM | Cc1nnc(CCC(=O)N2CCc3[nH]cnc3C2c2nc3ccc(Cl)cc3[nH]2)s1 (stereo not drawn) [listing 1 of 2 here]
31 | > 5 µM | Cc1nnc(C(=O)N2CCc3[nH]cnc3C2c2nc3ccccc3[nH]2)s1 (stereo not drawn) [listing 1 of 2 here]
32 | > 5 µM | O=C(c1nc2ccccc2s1)N1CCc2[nH]cnc2C1c1nc2ccccc2[nH]1 (stereo not drawn) [listing 1 of 2 here]
33 | > 5 µM | O=C(c1cnn2cc(Cl)ccc12)N1CCc2[nH]cnc2C1c1nc2ccccc2[nH]1 (stereo not drawn) [listing 1 of 2 here]
34 | > 5 µM | O=C(c1ccc2ncsc2c1)N1CCc2[nH]cnc2C1c1nc2ccccc2[nH]1 (stereo not drawn) [listing 1 of 2 here]
35 | > 5 µM | O=C(c1ncc[nH]1)N1CCc2[nH]cnc2C1c1nc2ccccc2[nH]1 (stereo not drawn) [listing 1 of 2 here]
36 | > 5 µM | O=C(c1nncs1)N1CCc2[nH]cnc2C1c1nc2ccccc2[nH]1 (stereo not drawn)
37 | > 5 µM | O=C(c1cnn2cc(Br)ccc12)N1CCc2[nH]cnc2C1c1nc2ccc(Br)cc2[nH]1 (stereo not drawn) [listing 1 of 2 here]
38 | > 5 µM | COc1ccn2ncc(C(=O)N3CCc4[nH]cnc4C3c3nc4ccc(Br)cc4[nH]3)c2c1 (stereo not drawn) [listing 1 of 2 here]
39 | > 5 µM | O=C(c1cncs1)N1CCc2[nH]cnc2C1c1nc2ccc(Cl)cc2[nH]1 (stereo not drawn) [listing 1 of 2 here]
40 | > 5 µM | O=C(c1nccs1)N1CCc2[nH]cnc2C1c1nc2ccc(F)cc2[nH]1 (stereo not drawn)
41 | 1 to 5 µM | O=C(c1cnn2ccc(Br)cc12)N1CCc2[nH]cnc2C1c1nc2ccc(Cl)cc2[nH]1 (stereo not drawn)
42 | > 5 µM | O=C(c1cnn2cc(Br)ccc12)N1CCc2[nH]cnc2C1c1nc2ccc(Cl)cc2[nH]1 (stereo not drawn) [listing 1 of 2 here]
43 | > 5 µM | COc1cccc(C=CC(=O)N2CCc3[nH]cnc3C2c2nc3ccccc3[nH]2)c1 (stereo not drawn) [listing 1 of 2 here]
44 | > 5 µM | O=C(c1nc2ccccc2s1)N1CCc2[nH]cnc2C1c1nc2ccc(Cl)cc2[nH]1 (stereo not drawn) [listing 1 of 2 here]
45 | > 5 µM | O=C(C1CC1)N1CCc2[nH]cnc2C1c1nc2ccc(F)cc2[nH]1 (stereo not drawn) [listing 1 of 2 here]

Row | AC50 | Structure (SMILES)
46 | 1 to 5 µM | COc1cccc(CCC(=O)N2CCc3[nH]cnc3C2c2nc3ccccc3[nH]2)c1 (stereo not drawn)
47 | 1 to 5 µM | O=C(Cc1nccs1)N1CCc2[nH]cnc2C1c1nc2ccccc2[nH]1 (stereo not drawn)
48 | 1 to 5 µM | O=C(CCc1cccs1)N1CCc2[nH]cnc2C1c1nc2ccccc2[nH]1 (stereo not drawn) [listing 2 of 2 here]
49 | > 5 µM | O=C(CCc1ccncc1)N1CCc2[nH]cnc2C1c1nc2ccccc2[nH]1 (stereo not drawn)
50 | 1 to 5 µM | O=C(CCc1nc2ccccc2o1)N1CCc2[nH]cnc2C1c1nc2ccccc2[nH]1 (stereo not drawn) [listing 2 of 2 here]
51 | 1 to 5 µM | O=C(CCc1ccc(F)cc1)N1CCc2[nH]cnc2C1c1nc2ccccc2[nH]1 (stereo not drawn) [listing 2 of 2 here]
52 | > 5 µM | Nc1nnc(CCC(=O)N2CCc3[nH]cnc3C2c2nc3ccccc3[nH]2)s1 (stereo not drawn)
53 | > 5 µM | CC(=O)N1CCc2[nH]cnc2C1c1nc2ccccc2[nH]1 (stereo not drawn)
54 | 1 to 5 µM | Cc1nnc(CCC(=O)N2CCc3[nH]cnc3C2c2nc3ccccc3[nH]2)s1 (stereo not drawn)
55 | 1 to 5 µM | O=C(CCc1ccccc1)N1CCc2[nH]cnc2C1c1nc2ccccc2[nH]1 (stereo not drawn)
56 | 1 to 5 µM | O=C(Cc1noc2ccccc12)N1CCc2[nH]cnc2C1c1nc2ccccc2[nH]1 (stereo not drawn) [listing 2 of 2 here]
57 | 1 to 5 µM | O=C(Cc1nccs1)N1CCc2[nH]cnc2C1c1nc2ccc(Br)cc2[nH]1 (stereo not drawn)
58 | 1 to 5 µM | Cc1nnc(CCC(=O)N2CCc3[nH]cnc3C2c2nc3ccc(Br)cc3[nH]2)s1 (stereo not drawn) [listing 2 of 2 here]
59 | 1 to 5 µM | O=C(Cc1nc(C(F)(F)F)cs1)N1CCc2[nH]cnc2C1c1nc2ccc(Br)cc2[nH]1 (stereo not drawn) [listing 2 of 2 here]
60 | 1 to 5 µM | O=C(Cc1nc(C(F)(F)F)cs1)N1CCc2[nH]cnc2C1c1nc2ccc(Cl)cc2[nH]1 (stereo not drawn)
61 | 1 to 5 µM | CC(C)(C)CCC(=O)N1CCc2[nH]cnc2C1c1nc2ccc(Cl)cc2[nH]1 (stereo not drawn)
62 | 1 to 5 µM | Cc1nnc(CCC(=O)N2CCc3[nH]cnc3C2c2nc3ccc(Cl)cc3[nH]2)s1 (stereo not drawn) [listing 2 of 2 here]
63 | 1 to 5 µM | O=C(Cc1nccs1)N1CCc2[nH]cnc2C1c1nc2ccc(Cl)cc2[nH]1 (stereo not drawn) [listing 2 of 2 here]
64 | 1 to 5 µM | O=C(CCc1nccs1)N1CCc2[nH]cnc2C1c1nc2ccc(F)cc2[nH]1 (stereo not drawn)
65 | 1 to 5 µM | O=C(CCc1nccs1)N1CCc2nc[nH]c2C1c1nc2cccc(Cl)c2[nH]1 (stereo not drawn)
66 | 1 to 5 µM | c1ccc2[nH]c(C3c4nc[nH]c4CCN3CCCc3nccs3)nc2c1 (stereo not drawn)
67 | > 5 µM | O=C(c1cnc[nH]1)N1CCc2[nH]cnc2C1c1nc2ccccc2[nH]1 (stereo not drawn)
68 | > 5 µM | O=C(c1cn[nH]c1)N1CCc2[nH]cnc2C1c1nc2ccccc2[nH]1 (stereo not drawn)

Row | AC50 | Structure (SMILES)
69 | 1 to 5 µM | O=C(c1nc2ccccc2s1)N1CCc2[nH]cnc2C1c1nc2ccccc2[nH]1 (stereo not drawn) [listing 2 of 2 here]
70 | 1 to 5 µM | Cc1nnc(C(=O)N2CCc3[nH]cnc3C2c2nc3ccccc3[nH]2)s1 (stereo not drawn) [listing 2 of 2 here]
71 | > 5 µM | O=C(c1nc2ccncc2s1)N1CCc2[nH]cnc2C1c1nc2ccccc2[nH]1 (stereo not drawn)
72 | 1 to 5 µM | O=C(c1cc[nH]n1)N1CCc2[nH]cnc2C1c1nc2ccccc2[nH]1 (stereo not drawn)
73 | > 5 µM | O=C(c1ncn2ccccc12)N1CCc2[nH]cnc2C1c1nc2ccccc2[nH]1 (stereo not drawn)
74 | 1 to 5 µM | O=C(c1ccc2ncsc2c1)N1CCc2[nH]cnc2C1c1nc2ccccc2[nH]1 (stereo not drawn) [listing 2 of 2 here]
75 | 1 to 5 µM | O=C(c1ncc[nH]1)N1CCc2[nH]cnc2C1c1nc2ccccc2[nH]1 (stereo not drawn) [listing 2 of 2 here]
76 | 1 to 5 µM | O=C(c1ccc(F)cc1)N1CCc2[nH]cnc2C1c1nc2ccccc2[nH]1 (stereo not drawn)
77 | 1 to 5 µM | O=C(c1cnn2cc(Cl)ccc12)N1CCc2[nH]cnc2C1c1nc2ccccc2[nH]1 (stereo not drawn) [listing 2 of 2 here]
78 | 1 to 5 µM | COc1ccn2ncc(C(=O)N3CCc4[nH]cnc4C3c3nc4ccc(Br)cc4[nH]3)c2c1 (stereo not drawn) [listing 2 of 2 here]
79 | 1 to 5 µM | O=C(c1cnn2cc(Br)ccc12)N1CCc2[nH]cnc2C1c1nc2ccc(Br)cc2[nH]1 (stereo not drawn) [listing 2 of 2 here]
80 | > 5 µM | O=C(c1cnn2cccc(F)c12)N1CCc2[nH]cnc2C1c1nc2ccc(Cl)cc2[nH]1 (stereo not drawn)
81 | 1 to 5 µM | O=C(c1nccs1)N1CCc2[nH]cnc2C1c1nc2ccc(Cl)cc2[nH]1 (stereo not drawn)
82 | 1 to 5 µM | O=C(c1cncs1)N1CCc2[nH]cnc2C1c1nc2ccc(Cl)cc2[nH]1 (stereo not drawn) [listing 2 of 2 here]
83 | > 5 µM | O=C(c1ncc(Cl)s1)N1CCc2[nH]cnc2C1c1nc2ccc(Cl)cc2[nH]1 (stereo not drawn)
84 | > 5 µM | O=C(c1ncn2ccccc12)N1CCc2[nH]cnc2C1c1nc2ccc(Cl)cc2[nH]1 (stereo not drawn)
85 | 1 to 5 µM | O=C(c1cnn2cc(Br)ccc12)N1CCc2[nH]cnc2C1c1nc2ccc(Cl)cc2[nH]1 (stereo not drawn) [listing 2 of 2 here]
86 | 1 to 5 µM | O=C(C=Cc1ccccc1)N1CCc2[nH]cnc2C1c1nc2ccccc2[nH]1 (stereo not drawn)
87 | 1 to 5 µM | COc1cccc(C=CC(=O)N2CCc3[nH]cnc3C2c2nc3ccccc3[nH]2)c1 (stereo not drawn) [listing 2 of 2 here]
88 | 1 to 5 µM | O=C(c1nc2ccccc2s1)N1CCc2[nH]cnc2C1c1nc2ccc(Br)cc2[nH]1 (stereo not drawn)
89 | 1 to 5 µM | O=C(c1nc2ccccc2s1)N1CCc2[nH]cnc2C1c1nc2ccc(Cl)cc2[nH]1 (stereo not drawn) [listing 2 of 2 here]
90 | 1 to 5 µM | O=C(C1CC1)N1CCc2[nH]cnc2C1c1nc2ccc(F)cc2[nH]1 (stereo not drawn) [listing 2 of 2 here]
